Source: patent publication US7074907B2, “Compound, process for producing the same and use thereof” (Nichirei Biosciences Inc., priority 2003, dated 2006)

How the values were obtained:
[1] = Test for linoleic acid autooxidation inhibitory effect; assay type: biochemical; conditions: sample 0.01% (w/v) in ethanol, stored in darkness at 40° C., degree of oxidation after two weeks, FIGS. 1 and 2
Protocol: <Test for Linoleic Acid Autooxidation Inhibitory Effect> 2 ml of 2.5% (w/v) linoleic acid was mixed with 4 ml of a 0.05 M phosphate buffer (pH 7.0) to prepare a reaction liquid. The compound of the present invention was dissolved in 99.5% ethanol at a concentration of 0.01% (w/v) 2 ml of the resulting solution and 2 ml of distilled water were added to the reaction liquid to make the total volume to 10 ml, mixed, and placed in a brown threaded bottle to prepare a sample. A negative control was prepared by adding, to the reaction liquid, only 2 ml of 99.5% ethanol and 2 ml of distilled water, without adding anything else. […] The measurement was carried out by mixing 0.1 ml of a sample, 9.7 ml of 75% ethanol, and 0.1 ml of a 30% ammonium thiocyanate solution, adding 0.1 ml of 2×10^−2 M ferrous chloride (3.5% hydrochloric acid solution) thereto, and exactly 3 minutes later, measuring the absorbance at 500 nm. From the measured values, the difference in absorbance and the rate of autooxidation after two weeks were obtained. The same measurement was made with the blanks, and ΔAbsorbance=(Absorbance of Main Sample)−(Absorbance of Blank) was taken. The absorbance increases with oxidation of the sample, and after reaching the maximum, decreases with consumption of the sample to be oxidized. Thus earlier occurrence of the peak absorbance represents weaker antioxidative activity. […]

[2] = DPPH radical scavenging test; assay type: biochemical; conditions: concentration of the sample solution; acetate buffer pH 5.5, 30° C., 30 minutes, absorbance at 517 nm
Protocol: The antioxidative activity of the compound of not lower than 95% purity of the present invention prepared in Example 1 was evaluated using a stable radical, 1,1-diphenyl-2-picrylhydrazyl (DPPH).
To 1600 μl of 250 mM acetate buffer (pH=5.5), 1200 μl of ethanol and 400 μl of a sample (at an arbitrary concentration in ethanol) were mixed, and pre-incubated at 30° C. for 5 minutes. 800 μl of a 500 μM DPPH/ethanol solution was added, mixed, and left to stand at 30° C. for 30 minutes. Then the absorbance of the sample at 517 nm was measured.
A negative control was prepared by adding, instead of the sample solution, only ethanol to the reaction liquid without adding anything else. A positive control was prepared in the same way as for the present compound at the same concentration in ethanol, except that the present compound was replaced with α-tocopherol. From the measured absorbances, the radical scavenging ratio was calculated in accordance with the following formula. Scavenging ratio (%)=(1−[Absorbance of Sample]/[Absorbance of Control])×100
The scavenging ratios were measured with the sample concentration in the sample solution being changed stepwise, to determine the concentration of the sample solution at which the DPPH radical scavenging ratio was 50%. This concentration was taken as the 50% DPPH radical scavenged concentration. […]

Row | Structure (SMILES) | antioxidative activity (oxidation inhibitory effect on linoleic acid) [1] | 50% DPPH radical scavenged concentration [2] [µg/mL]
1 | O=C(O)c1cc(O)c(O)c(O)c1 [gallic acid] | weaker oxidation inhibitory effect on linoleic acid | 
2 | Cc1c(C)c2c(c(C)c1O)CC[C@@](C)(CCC[C@H](C)CCC[C@H](C)CCCC(C)C)O2 [α-tocopherol] |  | 121.5
